Experimental data from PMC3984012 (Journal of Acquired Immune Deficiency Syndromes (1999), 2014).

Legend:
P-gp = conditions: cited from earlier work
[1] = cited from earlier work; for AUC8 previously reported / C8 previously reported: dosed alone, range; for Mean historical minimum plasma concentration (Cmin): historical data
CYP3A and OATP1B1 = conditions: coadministered with atorvastatin; cited from earlier work
[2] = Plasma BOC and TVR pharmacokinetics when coadministered with MVC; type: in vivo, human; conditions: coadministered with MVC 150 mg BID
OATP1B1 = conditions: read-out: OATP1B1 IC50; in vitro data; cited from earlier work
CYP3A = conditions: oral coadministration of midazolam; cited from earlier work
HIV-1 = conditions: cited from earlier work

Compound | Increase in AUC of digoxin (P-gp) [%] | AUC8 previously reported [1] [ng·h/mL] | C8 previously reported [1] [ng/mL] | Mean historical minimum plasma concentration (Cmin) [1] [ng/mL] | Increase in AUC (exposure) of atorvastatin (CYP3A and OATP1B1) [fold] | Exposures when coadministered with MVC compared with historical data [2] | IC50 (OATP1B1) [µM] | Increase in AUC of midazolam (CYP3A) [%] | Cavg exposure at which near maximal virologic efficacy is achieved (HIV-1)
CC(C)(C)NC(=O)N[C@H](C(=O)N1C[C@H]2[C@@H]([C@H]1C(=O)NC(CC1CCC1)C(=O)C(N)=O)C2(C)C)C(C)(C)C (some centres unmarked) [BOC, Boceprevir] | 19 | 4601 to 7070 | 88.5 to 111 | 102 | 2.30 | consistent with historical data | 18 | 430 | 
CCC[C@H](NC(=O)[C@@H]1[C@H]2CCC[C@H]2CN1C(=O)[C@@H](NC(=O)[C@@H](NC(=O)c1cnccn1)C1CCCCC1)C(C)(C)C)C(=O)C(=O)NC1CC1 [TVR, Telaprevir] | 85 | 18157 to 22300 | 1505 to 2030 | 1802 | 7.88 | consistent with historical data | 2.2 | 796 | 
Maraviroc [MVC] |  |  |  |  |  |  |  |  | 75–100 ng/mL
